Like-named read-outs stand apart in the source and are kept apart here.
Assays:
[1] = test system: Cancer Stem Cells MiaPaca_2; assay: MTT assay, synergism with Gemcitabine, Cancer Stem Cells MiaPaca_2; assay type: cell-based; conditions: Homo sapiens, MIA PaCa-2; Cancer Stem Cells MiaPaca_2, Gemcitabine alone; read-out: IC50, dose-response curve of Gemcitabine
Experimental: In order to study if treatment with MDN-0090 could be used in synergism with the most common pancreatic chemotherapic drug (Gemcitabine), MTT assay was performed using tumor cell lines (MiaPaca_2 and BxPC3) and cancer stem cells (MiaPaca_2 and BxPC3). In this way different Gemcitabine concentrations (0.00025-5 μM) were used with MDN-0090 dose response curves (0.39-50 μM) and vice versa. With this assay, we observed that the activity of both compounds (Gemcitabine and MDN-0090) increased when were administered together. (Tables 14-19)

[2] = test system: MiaPaca_2; assay: MTT assay in MiaPaca_2 tumoral pancreatic cell line; assay type: cell-based; conditions: Homo sapiens, MIA PaCa-2; 72 hours of treatment; read-out: ED50 MiaPaca_2 (MTT assay)
Experimental: (§1) The activity of the compounds was detected using tumoral pancreatic cell lines (MiaPaca-2 and BxPC3). For this purpose MTT test was used. Cells were seeded at […], and treated with the compound during 72 hours.

[3] = test system: BxPC3; assay: MTT assay in BxPC3 tumoral pancreatic cell line; assay type: cell-based; conditions: Homo sapiens, BXPC-3; 72 hours of treatment; read-out: ED50 BxPC3 (MTT assay)
Experimental: as §1

[4] = test system: MiaPaca 2 cell line; assay: ApoTox-Glo Triplex Assay (viability, citotoxicity, apoptosis); assay type: cell-based; conditions: Homo sapiens, MIA PaCa-2, MiaPaca_2, 72 hours of treatment
Experimental: The MiaPaca 2 cell line was used for further evaluation of the MDN-0089, MDN-0090, MDN-0092 and MDN-0093 activity. The ApoTox-Glo™ Triplex Assay was used to evaluate three parameters (viability, citotoxicity and apoptosis).
Viability: The live-cell protease activity is restricted to intact viable cells and is measured using a fluorogenic, cell-permeant, peptide substrate (glycylphenylalanyl-aminofluorocoumarin; GF-AFC). The substrate enters intact cells where it is cleaved by the live-cell protease activity to generate a fluorescent signal proportional to the number of living cells
Cytotoxicity: Fluorogenic cell-impermeant peptide substrate (bis-alanylalanyl-phenylalanyl-rhodamine 110; bis-AAF-R110) is used to measure dead-cell protease activity, which is released from cells that have lost membrane integrity. Because bis-AAF-R110 is not cell-permeant, essentially no signal from this substrate is generated by intact, viable cells
Apoptosis: The assay uses the Caspase-Glo® Assay Technology by providing a luminogenic caspase-3/7 substrate, which contains the tetrapeptide sequence DEVD, in a reagent optimized for caspase activity, luciferase activity and cell lysis.

[5] = test system: MiaPaca_2 cell line; assay: CFSE assay (cell cycle inhibition, High content screening); assay type: cell-based; conditions: Homo sapiens, MIA PaCa-2; MiaPaca_2, 72 hours of treatment; read-out: ED50 CFSE assay
Experimental: To evaluate the potency of the MDN-0089, MDN-0090, MDN-0092 and MDN-0093, dye CFSE and High content screening (HCS) equipment were used. MiaPaca_2 cell line was used. Cells were seeded in 96 wells plates at 10.000 cells/well. Medium was removed and compounds and standards were added in fresh medium at different concentrations, (1 μL of compound/200 μL fresh medium). The DMSO concentration was 0.5% in all wells. After 72 hours of incubation (37° C., 5% CO2), plates were read in HCS equipment.

[6] = test system: pERK1/2; assay: Western blot pERK1_2 (Ras/Raf/MEK/ERK pathway inhibition); assay type: cell-based; conditions: 24 hours of treatment, untreated 0.38
From the text: Western blot technique was used, using an Odissey Licor equipment to read the membranes. pERK1_2 antibody was used as first antibody and as second antibody we used anti-mouse antibodies. Then, the membranes were quantified using β-actin.

[7] = test system: HepG2; assay: Cytotoxicity on HepG2; assay type: cell-based; conditions: for activity effect on HepG2 (in words): 72 hours; for IC50: Homo sapiens, HepG2, 72 hours, read-out: IC50 Cytoxicity
[8] = test system: p-ERK; assay: AlphaScreen Surefire p-ERK kit assay; assay type: cell-based; conditions: 24 hours of treatment, read-out: Inflexion point (AlphaScreen)
Experimental: This effect was checked for MDN-0090 with a p-ERK kit (Perkin Elmer). Cells were seeded into 96 wells/plate at 75000 cells/well. 24 hours later the medium was removed and the compound was added with fresh medium. After 24 hours of treatment, cells were lysed. 15 μL of the lysate and 15 μL of reagents were added. After 2 hours of incubation, plate was read using an EnVision equipment to read AlphaScreen assay (AlphaScreen signal (Luminiscent/fluorescent). See table 11 and FIG. 2.

[9] = test system: CSCs MiaPaca_2; assay: MTT test on pancreatic Cancer Stem Cells MiaPaca_2; assay type: cell-based; conditions: Homo sapiens, MIA PaCa-2, read-out: ED50 CSCs MiaPaca_2
From the text: (§2) Two established cell lines derived from two different pancreatic adenocarcinomas: BxPC3 (reference ATCC® CRL-1687), mutated for CDKN2A, MAP2K4, SMAD4 and TP53; and MIA-PaCa-2 (reference ATCC® CRL-1420), mutated for k-RAS were used. These cells lines were maintained with Dulbecco's-Modified Eagle's Medium (DMEM) (Sigma-Aldrich, St. Louis, Mo., USA) supplemented with 10% fetal bovine serum (FBS) (Gibco, Carlsbad, Calif., USA) and 1% penicillin/streptomycin (P/S) (Sigma-Aldrich) in a 75 cm^2 culture flask (B D Falcon, Franklin Lakes, N.J.) unless otherwise indicated. All cells were grown at 37° C. with 5% CO2 in a humidified incubator (Steri-Cult CO2 Incubator, Thermo Electron Corporation, Waltham, Mass., USA). Media were changed every 48-72 hours and cultured cells with a maximum of 80% confluence were passed.
(§3) For the isolation of CSCs subpopulation we used the methodology described in WO 2016/020572.
(§4) The activity of the MDN-0090 was detected using pancreatic Cancer Stem Cell lines (MiaPaca-2 and BxPC3). For this purpose MTT test was used.

[10] = test system: CSCs BxPC3; assay: MTT test on pancreatic Cancer Stem Cells BxPC3; assay type: cell-based; conditions: Homo sapiens, BXPC-3, read-out: ED50 CSCs BxPC3
From the text: as §2, §3, §4

[11] = test system: BxPC3 tumor cell line xenografts; assay: Antitumor activity in heterotopic xenografts, BxPC3; assay type: in vivo; conditions: BxPC3 xenograft, NSG mice, 20 mg/kg ip three times a week for 50 days
Experimental: (§5) To evaluate the effect of MDN-0090 on tumor growth heterotopic xenografts were used for both BxPC3 and MIAPaca-2 tumor cell lines. Tumor formation was induced by subcutaneous injection of 5×10^6 cells/mouse in female NOD scid mice gamma (NOD.Cg-Prkdcscid II2rgtm1Wjl/SzJ, NSG) of eight weeks old. Animals (n=40, 10 per group) were housed and maintained at 20° C. to 24° C., 50% humidity a light-dark cycle of 14 to 10 h with food and water ad libitum. Tumors were grown to an average volume of 100 mm^3, after which they were randomly assigned as control groups (saline) and treated with MDN-0090 (20 mg/kg, dissolved in saline) injected ip three times a week for 50 days. Tumor growth was assessed twice weekly using a digital caliper and the tumor volume was calculated by the formula V=(length)^2×width×π/6.

[12] = test system: MIAPaca-2 tumor cell line xenografts; assay: Antitumor activity in heterotopic xenografts, MIAPaca-2; assay type: in vivo; conditions: MIAPaca-2 xenograft, NSG mice, 20 mg/kg ip three times a week for 50 days
Experimental: as §5

[13] = test system: BxPC3 CSCs xenografts; assay: Antitumor activity against CSCs induced tumors; assay type: in vivo; conditions: BxPC3 CSCs xenograft, NSG mice, 10 mg/kg or 20 mg/kg ip three times a week for 52 days
Experimental: We evaluated the effect of MDN-0090 on CSCs induced tumors. We isolated and characterized the pancreatic CSCs from BxPC3 cell line using the methodology described previously (WO 2016/020572).
In vivo experiment was performed in male and female NOD scid gamma mice (NSG, NOD.Cg-Prkdcscid II2rgtm1Wjl/SzJ). All animals (n=10 per group) were maintained in a microventilated cage system with a 12-h light/dark cycle, and were manipulated in a laminar air-flow cabinet to keep on the specific pathogen-free conditions.
For the induction of xenografts tumors, mice were anesthetized by inhalation of isofluorane, inoculated with 5×10^4 BxPC3 CSCs by subcutaneously injections into the flank regions. Tumors were grown to an average volume of 100 mm^3, after which they were randomly assigned as control groups (saline) and treatment A with MDN-0090 (10 mg/kg, dissolved in saline) and treatment B (20 mg/kg, dissolved in saline) ip three times a week for 52 days. Tumor growth was assessed twice weekly using a digital caliper and the tumor volume was calculated by the formula V=(length)^2×width×π/6.

[14] = test system: BxPC3 tumor cell line; assay: In vivo tumorigenicity assay, BxPC3; conditions: BxPC3 cells treated with MDN-0090 at IC50 for 24 hours before inoculation into NSG mice
Experimental: (§6) To evaluate the effect of MDN-0090 on the tumorigenicity ability of CSC-like cells heterotopic xenografts using both BxPC3 and MIAPaca-2 tumor cell lines were established. Firstly, we treated cells with MDN-0090 at IC50 for 24 hours and after that cells were inoculated into the animals. Pancreatic cancer non-treated cells were used as control.
(§7) Tumor formation was induced by subcutaneous injection of 1.5×10^4 in vitro treated or non-treated cells/mouse in NOD scid mice gamma (NOD.Cg-Prkdcscid II2rgtm1Wjl/SzJ, NSG). Animals (n=20, 10 per group) were housed and maintained at 20° C. to 24° C., 50% humidity a light-dark cycle of 14 to 10 h with food and water ad libitum. We observed the tumor growth every two days. Tumor growth was assessed using a digital caliper and the tumor volume was calculated by the formula V=(length)^2×width×π/6.

[15] = test system: MIAPaca-2 tumor cell line; assay: In vivo tumorigenicity assay, MIAPaca-2; conditions: MIAPaca-2 cells treated with MDN-0090 at IC50 for 24 hours before inoculation into NSG mice
Experimental: as §6, §7

[16] = read-out: ED50 Apoptosis (Caspase3_7)

SMILES | EC50 [2] | EC50 [3] | EC50 [4, 16] | EC50 ([4]; read-out: ED50 Citotoxicity) | EC50 ([4]; read-out: ED50 Viability) | EC50 [5] | pERK1_2 (Fluorescence pERK1/2/fluorescence β-actine) [6] | activity effect on HepG2 (in words) [7] | IC50 [7] | also measured
Nc1ccn([C@@H]2O[C@H](CO)[C@@H](O)C2(F)F)c(=O)n1 [Gemcitabine] | – | – | – | – | – | – | – | – | – | IC50 [1]: 1.9 µM
Cc1cc(O)c(C(=O)c2c(C=O)c(O)cc3c2C(=O)CC(C)(C)O3)c(O)c1 [MDN-0089] | 20.3 µM | 7.63 µM | 29.7 µM | > 50 µM | > 50 µM | 3.33 µM | 0.22 | medium activity effect | 13.6 µM | –
CC(C)=CCc1c(O)cc(O)c(C=O)c1C(=O)c1c(O)cc(C)cc1O [MDN-0090, 2,3′,5′,6-tetrahydroxy-2′-formyl-6′-(3-methyl-2-butenyl)-4-methyl-benzophenone] | 8.84 µM | 4.67 µM | 24.9 µM | > 50 µM | 17.3 µM | 5.27 µM | 0.18 | medium activity effect | 19.7 µM | IC50 ([8]; 24 h): 9.02 µM; IC50 [8]: 6.12 µM; EC50 ([9]; 12 hours): 20.8 µM; EC50 ([9]; 24 hours): 14 µM; EC50 ([9]; 48 hours): 19.6 µM; EC50 ([9]; 72 hours): 2.18 µM; EC50 ([10]; 12 hours): 14.3 µM; EC50 ([10]; 24 hours): 17 µM; EC50 ([10]; 48 hours): 14 µM; EC50 ([10]; 72 hours): 10.3 µM; tumor size (tumor volume) [11]: reduces the size of tumors; tumor size (tumor volume) [12]: reduces the size of tumors; tumor size (tumor volume) [13]: decreased the size tumor; tumor formation [14]: reduces tumor formation; tumor formation [15]: reduces tumor formation
Cc1cc(O)c(C(=O)c2c(C=O)c(O)cc3c2C=CC(C)(C)O3)c(O)c1 [MDN-0091] | > 50 µM | > 50 µM | – | – | – | – | – | – | – | –
COc1cc(O)c(C=O)c(C(=O)c2c(O)cc(C)cc2O)c1CC=C(C)C [MDN-0092] | 7.18 µM | 9.14 µM | > 50 µM | > 50 µM | > 50 µM | 22.9 µM | 0.29 | medium activity effect | 20.4 µM | –
COc1cc(O)c(C=O)c(C(=O)c2c(O)cc(C)c(Cl)c2O)c1CC=C(C)C [MDN-0093] | 6.47 µM | 8.7 µM | 18.4 µM | > 50 µM | 14.5 µM | < 3.15 µM | 0.12 | high activity effect | 8.9 µM | –
COc1cc(O)c2oc3cc(C)cc(O)c3c(=O)c2c1CC=C(C)C [MDN-0094] | > 50 µM | > 50 µM | – | – | – | – | – | – | – | –

— patent US10414745B2, “Phenol derivatives to treat cancer” (FUNDACIÓN MEDINA. CENTRO DE EXCELENCIA EN INVESTIGACIÓN DE …, priority 2015, dated 2019)
